The text below walks through data of publication PMC5372594 (International Journal of Molecular Sciences, 2017).

Peptide text beside a SMILES is read from it.

The test system of series [1] is trypsin. Nature of the series: Trypsin resistance measured by HPLC (residue rate). The class given is in vitro ADME. From the text:
The substrate was hydrolyzed with trypsin, and the peak area of the sample, which added the stop-buffer at the start point, was set to 100%.

The target of series [2] is T1, GLP-1R (Homo sapiens, UniProt P43220).
T1 construct: expressed in transfected cells
T1 sequence (P43220 24-463): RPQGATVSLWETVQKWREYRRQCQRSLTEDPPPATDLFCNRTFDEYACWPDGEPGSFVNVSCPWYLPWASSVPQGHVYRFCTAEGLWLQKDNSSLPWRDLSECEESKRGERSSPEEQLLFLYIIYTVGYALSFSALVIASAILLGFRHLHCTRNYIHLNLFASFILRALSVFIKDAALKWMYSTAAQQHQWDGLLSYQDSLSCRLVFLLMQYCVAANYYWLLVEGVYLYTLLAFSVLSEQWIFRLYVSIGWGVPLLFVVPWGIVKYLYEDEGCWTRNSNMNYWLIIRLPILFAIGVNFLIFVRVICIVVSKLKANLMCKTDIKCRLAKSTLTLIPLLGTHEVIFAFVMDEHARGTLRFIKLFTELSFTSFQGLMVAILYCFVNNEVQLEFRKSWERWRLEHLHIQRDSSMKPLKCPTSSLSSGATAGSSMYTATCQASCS
Nature of the series: CRE-luciferase reporter-gene assay, CHO cells stably expressing human GLP-1 receptor. Format: cell-based. The note with it: 4-h culture with peptide, 10-step 5-fold dilution from 250 nmol/L, mean ± SEM, n = 3. In general terms: In a reporter assay the amount or activity of a reporter protein is the signal.
Method: A cyclic adenosine monophosphate response element (CRE)-luciferase based reporter-gene assays, as a surrogate for cyclic adenosine monophosphate (cAMP) formation, were used to measure the abilities of the analogs to activate GLP-1R.
Cells were grown at 37 °C with 5% CO2 in Dulbecco’s modified Eagle’s medium-F12 supplemented with 10% fetal bovine serum (FBS), 4.5 g/L glucose, 100 units/ml penicillin, 100 mg/mL streptomycin, 0.6 mg/mL hygromycin B and 1 mg/mL G418. […] Each well contained 20,000 cells. The initial concentration of each analog and positive control was 250 nmol/L, which was diluted 5 times to produce a 10-step gradient, and each well contained 20 μL. After 4-h culture, 100 μL of a chemical light-emitting substrate was added to each well. Fluorescence was measured with an EnVision 2104 Multilabel Reader (PerkinElmer, Houston, TX, USA) after a 40-min oscillation at 25 °C.

In series [3] the target is T1, GLP-1R. Nature of the series: CHO cell cAMP accumulation assay (ELISA). Format: cell-based. The note with it: 30 min incubation, 0.5 mM IBMX, 3-parameter non-linear regression, n = 3.
Method: CHO cells were stably transfected with GLP-1R and grown in conditions described above. […] After 4-h culture, cells were treated with compounds diluted in assay buffer to concentrations within the 10^−4–10^4 nM range and incubated for 30 min. Cells were lysed by freezing and thawing three times. The samples were then assayed according to the cAMP ELISA assay kit protocol (Jiancheng, Nanjing, China).
The conditions of series [4]: mouse, in vivo.
Method: (§1) Retro orbital blood collections were performed on mice at different time points (0, 1, 2, 3, 4, 6, 8, 10 and 12 h).
A short description of series [5]: in vivo. As to conditions: male, C57BL/6J, mouse.
Method: as §1
For series [6], the system named is trypsin. In words: trypsin. As to conditions: up to 60 min.

The amount remaining is what is left of the initial amount, in per cent. Low readings indicate more turnover, high ones less turnover. Usually EC50 stands for the concentration that produces a half-maximal response. In general, AUC(0-t) refers to exposure summed from dosing to a finite time, without extrapolation to infinity. Read a low AUC(0-t) as less exposure. Usually Cmax stands for the peak of the concentration-time curve. With `CC[C@H](C)[C@H](NC(=O)[C@H](Cc1ccccc1)NC(=O)[C@H](CC(C)C)NC(=O)[C@H](CC(C)C)NC(=O)[C@@H](NC(=O)[C@H](C)NC(=O)[C@H](CCC(=O)O)NC(=O)[C@H](CCC(=O)O)NC(=O)[C@H](CCC(=O)O)NC(=O)[C@H](CCSC)NC(=O)[C@H](CCC(N)=O)NC(=O)[C@H](CCSC)NC(=O)[C@H](CO)NC(=O)[C@H](CC(C)C)NC(=O)[C@H](CC(=O)O)NC(=O)[C@H](CO)NC(=O)[C@@H](NC(=O)[C@H](Cc1ccccc1)NC(=O)[C@@H](NC(=O)CNC(=O)[C@H](CCC(=O)O)NC(=O)CNC(=O)[C@@H](N)Cc1c[nH]cn1)[C@@H](C)O)[C@@H](C)O)C(C)C)C(=O)N[C@@H](CCC(=O)O)C(=O)N[C@@H](Cc1c[nH]c2ccccc12)C(=O)N[C@@H](CC(C)C)C(=O)N[C@@H](CCSC)C(=O)N[C@@H](CC(N)=O)C(=O)NCC(=O)NCC(=O)N1CCC[C@H]1C(=O)N[C@@H](CO)C(=O)N[C@@H](CO)C(=O)NCC(=O)N[C@@H](C)C(=O)N1CCC[C@H]1C(=O)N1CCC[C@H]1C(=O)N1CCC[C@H]1C(=O)N[C@@H](CO)C(=O)N[C@@H](CS)C(=O)O` [TSME-1] (H-HGEGTFTSDLSMQMEEEAVLLFIEWLMNGGPSSGAPPPSC-OH), the “Residue rate at 30 min” value in series [1] was 100% ± 0%. The molecule further returned a share remaining at 1 h in series [1] (isolated enzyme trypsin) of 100%. Moreover, the EC50 in series [2] is 0.38 nM; in series [3], 1.1 nM. Further, the Relative bioavailability in series [4] amounted to 0.881%. Moreover, the “Time to peak concentration” value in series [4] (po) is recorded as “An hour”. Further, the AUC(0-t) worked out at 0.56 ± 0.15 ng·h/mL in series [5] (po) and 3.17 ± 0.72 ng·h/mL in series [5] (sc). The molecule also gave a Cmax in series [5] (po, 2.12 mg/kg) of 0.2 ± 0.05 ng/mL.
`CC[C@H](C)[C@H](NC(=O)[C@H](Cc1ccccc1)NC(=O)[C@H](CC(C)C)NC(=O)[C@@H](NC(=O)[C@@H](NC(=O)[C@H](C)NC(=O)[C@H](CCC(=O)O)NC(=O)[C@H](CCC(=O)O)NC(=O)[C@H](CCC(=O)O)NC(=O)[C@H](CCSC)NC(=O)[C@H](CCC(N)=O)NC(=O)[C@@H](NC(=O)[C@H](CO)NC(=O)[C@H](CC(C)C)NC(=O)[C@H](CC(=O)O)NC(=O)[C@H](CO)NC(=O)[C@@H](NC(=O)[C@H](Cc1ccccc1)NC(=O)[C@@H](NC(=O)CNC(=O)[C@H](CCC(=O)O)NC(=O)CNC(=O)[C@@H](N)Cc1c[nH]cn1)[C@@H](C)O)[C@@H](C)O)C(C)C)C(C)C)C(C)C)C(=O)N[C@@H](CCC(=O)O)C(=O)N[C@@H](Cc1c[nH]c2ccccc12)C(=O)N[C@@H](CC(C)C)C(=O)N[C@H](C(=O)N[C@@H](CC(N)=O)C(=O)NCC(=O)NCC(=O)N1CCC[C@H]1C(=O)N[C@@H](CO)C(=O)N[C@@H](CO)C(=O)NCC(=O)N[C@@H](C)C(=O)N1CCC[C@H]1C(=O)N1CCC[C@H]1C(=O)N1CCC[C@H]1C(=O)N[C@@H](CO)C(=O)N[C@@H](CS)C(=O)O)C(C)C` [TSME-3] (H-HGEGTFTSDLSVQMEEEAVVLFIEWLVNGGPSSGAPPPSC-OH) showed an EC50 in series [2] of 19.2 nM.
For the molecule `CC[C@H](C)[C@H](NC(=O)[C@H](Cc1ccccc1)NC(=O)[C@H](CC(C)C)NC(=O)[C@H](Cc1ccc(O)cc1)NC(=O)[C@@H](NC(=O)[C@H](C)NC(=O)[C@H](CCC(=O)O)NC(=O)[C@H](CCC(=O)O)NC(=O)[C@H](CCC(=O)O)NC(=O)[C@H](CCSC)NC(=O)[C@H](CCC(N)=O)NC(=O)[C@H](CCSC)NC(=O)[C@H](CO)NC(=O)[C@H](CC(C)C)NC(=O)[C@H](CC(=O)O)NC(=O)[C@H](CO)NC(=O)[C@@H](NC(=O)[C@H](Cc1ccccc1)NC(=O)[C@@H](NC(=O)CNC(=O)[C@H](CCC(=O)O)NC(=O)CNC(=O)[C@@H](N)Cc1c[nH]cn1)[C@@H](C)O)[C@@H](C)O)C(C)C)C(=O)N[C@@H](CCC(=O)O)C(=O)N[C@@H](Cc1c[nH]c2ccccc12)C(=O)N[C@@H](CC(C)C)C(=O)N[C@@H](CCSC)C(=O)N[C@@H](CC(N)=O)C(=O)NCC(=O)NCC(=O)N1CCC[C@H]1C(=O)N[C@@H](CO)C(=O)N[C@@H](CO)C(=O)NCC(=O)N[C@@H](C)C(=O)N1CCC[C@H]1C(=O)N1CCC[C@H]1C(=O)N1CCC[C@H]1C(=O)N[C@@H](CO)C(=O)N[C@@H](CS)C(=O)O` [TSME-4] (H-HGEGTFTSDLSMQMEEEAVYLFIEWLMNGGPSSGAPPPSC-OH), in series [2], the EC50 was 31.2 nM.
Same read-out and setting: next, `CC[C@H](C)[C@H](NC(=O)[C@H](CC(C)C)NC(=O)[C@H](Cc1c[nH]c2ccccc12)NC(=O)[C@H](CCC(=O)O)NC(=O)[C@@H](NC(=O)[C@H](Cc1ccccc1)NC(=O)[C@H](CC(C)C)NC(=O)[C@H](Cc1ccc(O)cc1)NC(=O)[C@@H](NC(=O)[C@H](C)NC(=O)[C@H](CCC(=O)O)NC(=O)[C@H](CCC(=O)O)NC(=O)[C@H](CCC(=O)O)NC(=O)[C@H](CCSC)NC(=O)[C@H](CCC(N)=O)NC(=O)[C@@H](NC(=O)[C@H](CO)NC(=O)[C@H](CC(C)C)NC(=O)[C@H](CC(=O)O)NC(=O)[C@H](CO)NC(=O)[C@@H](NC(=O)[C@H](Cc1ccccc1)NC(=O)[C@@H](NC(=O)CNC(=O)[C@H](CCC(=O)O)NC(=O)CNC(=O)[C@@H](N)Cc1c[nH]cn1)[C@@H](C)O)[C@@H](C)O)[C@@H](C)CC)C(C)C)[C@@H](C)CC)C(=O)N[C@@H](CC(N)=O)C(=O)NCC(=O)NCC(=O)N1CCC[C@H]1C(=O)N[C@@H](CO)C(=O)N[C@@H](CO)C(=O)NCC(=O)N[C@@H](C)C(=O)N1CCC[C@H]1C(=O)N1CCC[C@H]1C(=O)N1CCC[C@H]1C(=O)N[C@@H](CO)C(=O)N[C@@H](CS)C(=O)O` [TSME-5] (H-HGEGTFTSDLSIQMEEEAVYLFIEWLINGGPSSGAPPPSC-OH): 8.83 nM.
For the molecule “HGEGTFTSDLSMQMEEEAVLLFIEWLMNGGPSSGAPPPSC”, the not cleaved in series [6] is given as 100% at 60 min.
